Drawing on US20230210999A1, “TARGETED PROTEASE DEGRADATION (TED) PLATFORM” (EUBULUS BIOTHERAPEUTICS INC., priority 2020, published 2023), this text covers IC50 for three compounds.

The subject of one test is MDA-MB-231 cells. Put plainly: Cell proliferation experiment, MDA-MB-231. It is filed as cell-based, human. The following applies: Homo sapiens, MDA-MB-231, 72 h, MDA-MB-231 cells, 72 h; read-out: Inhibitory activity IC50 of tested compounds on MDA-MB-231 cells. The procedure, abridged: (§1)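 Alamar blue fluorescence after 72 h of compound exposure; IC50 from 4-parameter fit (Min, Max, Slope). Cells passaged ≥2 times, log-phase, 96-well, duplicate wells, 5-fold serial dilutions.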
Broadly, the IC50 is the midpoint of a concentration-inhibition curve. For the compound `CC[C@@H]1C(=O)N(C)c2cnc(Nc3ccc(C(=O)NCCCN(C)CCOCCCC#Cc4cccc5c4CN(C4CCC(=O)NC4=O)C5=O)cc3OC)nc2N1C1CCCC1` (stereo partly drawn) [Compound 884], the IC50 is ≤ 500 nM.
In the case of `CC[C@@H]1C(=O)N(C)c2cnc(Nc3ccc(C(=O)NCCCOCCNCCC#Cc4cccc5c4CN(C4CCC(=O)NC4=O)C5=O)cc3OC)nc2N1C1CCCC1` (stereo partly drawn) [Compound 888], the IC50 is ≤ 500 nM.
Same read-out and setting: with `CC[C@@H]1C(=O)N(C)c2cnc(Nc3ccc(C(=O)NC4CCC(N5CCN(CCC#Cc6cccc7c6CN(C6CCC(=O)NC6=O)C7=O)CC5)CC4)cc3OC)nc2N1C1CCCC1` (stereo partly drawn) [Compound 889] the figure was ≤ 500 nM.

In a further test the test system is MV4;11 cells. Put plainly: Cell proliferation experiment (Alamar blue, 72 h), MV4;11. It is filed as cell-based, human. To be noted: Homo sapiens, MV4-11, 72 h, MV4;11 cells, 72 h; read-out: Inhibitory activity IC50 of tested compounds on MV4;11 cells. A digest of the protocol:
as §1
Background: The colour change of resazurin is a common sign of viable cells or microbes.
Regarding `CC[C@@H]1C(=O)N(C)c2cnc(Nc3ccc(C(=O)NCCCN(C)CCOCCCC#Cc4cccc5c4CN(C4CCC(=O)NC4=O)C5=O)cc3OC)nc2N1C1CCCC1` (stereo partly drawn) [Compound 884], the IC50 is ≤ 100 nM.
The same measure, in the same setting: with `CC[C@@H]1C(=O)N(C)c2cnc(Nc3ccc(C(=O)NCCCOCCNCCC#Cc4cccc5c4CN(C4CCC(=O)NC4=O)C5=O)cc3OC)nc2N1C1CCCC1` (stereo partly drawn) [Compound 888] the figure was ≤ 100 nM; with `CC[C@@H]1C(=O)N(C)c2cnc(Nc3ccc(C(=O)NC4CCC(N5CCN(CCC#Cc6cccc7c6CN(C6CCC(=O)NC6=O)C7=O)CC5)CC4)cc3OC)nc2N1C1CCCC1` (stereo partly drawn) [Compound 889], ≤ 100 nM.

Another test concerns Daudi cells. Kind of test: Cell proliferation experiment, Daudi. The following applies: Homo sapiens, Daudi, 72 h, Daudi cells, 72 h; read-out: Inhibitory activity IC50 of tested compounds on Daudi cells. Format: cell-based, human. A digest of the protocol: as §1
As to `CC[C@@H]1C(=O)N(C)c2cnc(Nc3ccc(C(=O)NCCCN(C)CCOCCCC#Cc4cccc5c4CN(C4CCC(=O)NC4=O)C5=O)cc3OC)nc2N1C1CCCC1` (stereo partly drawn) [Compound 884], the half-inhibitory concentration (IC50) is ≤ 100 nM.
On the same count and under the same terms, to `CC[C@@H]1C(=O)N(C)c2cnc(Nc3ccc(C(=O)NCCCOCCNCCC#Cc4cccc5c4CN(C4CCC(=O)NC4=O)C5=O)cc3OC)nc2N1C1CCCC1` (stereo partly drawn) [Compound 888] belongs ≤ 100 nM; to `CC[C@@H]1C(=O)N(C)c2cnc(Nc3ccc(C(=O)NC4CCC(N5CCN(CCC#Cc6cccc7c6CN(C6CCC(=O)NC6=O)C7=O)CC5)CC4)cc3OC)nc2N1C1CCCC1` (stereo partly drawn) [Compound 889], ≤ 100 nM.

A further test concerns MOL4-4 cells. Kind of test: Cell proliferation experiment, MOL4-4. It is filed as cell-based. To be noted: Homo sapiens, 72 h, read-out: Inhibitory activity IC50 of tested compounds on MOL4-4 cells. As to the method: (§2) Reagents: RPMI-1640 medium, McCoy's 5A medium, IMDM medium, MEM medium, L-15 medium, fetal bovine serum. Penicillin-Streptomycin double antibody, trypsin, etc., 2-mercaptoethanol, NEAA, pyruvate, etc.
(§3) The cells were cultured in conventional ways, and the cells should be passed at least 2 generations before plating. Cells at the logarithmic growth phase were collected, prepared into single cell suspensions and counted. The concentration of cells was adjusted to the desired concentration, and cells were inoculated into a 96-well cell culture plate at 100 μl per well. 100 μL of complete medium of the test compound were added to each well, set up 2 duplicate wells for each concentration, and diluted with a 5-fold gradient, and continued to culture for 72 h. All cells were subjected to IC50 test for corresponding samples. The experimental results are shown in Test Example 4.
(§4) The fluorescence intensity of each well was detected using the Alarm blue method, and IC50 was calculated.
(§5) IC50 was calculated according to the following formula:
(§6) Y=Max+(Min−Max)/[1+(X/IC50)×Slope]
(§7) wherein Min, Max and Slope represent the minimum, maximum and slope respectively.
Consider `CC[C@@H]1C(=O)N(C)c2cnc(Nc3ccc(C(=O)NCCCN(C)CCOCCCC#Cc4cccc5c4CN(C4CCC(=O)NC4=O)C5=O)cc3OC)nc2N1C1CCCC1` (stereo partly drawn) [Compound 884], for which the IC50 is ≤ 100 nM.
Still for that read-out and setting: to `CC[C@@H]1C(=O)N(C)c2cnc(Nc3ccc(C(=O)NCCCOCCNCCC#Cc4cccc5c4CN(C4CCC(=O)NC4=O)C5=O)cc3OC)nc2N1C1CCCC1` (stereo partly drawn) [Compound 888] belongs ≤ 100 nM.
On the same count and under the same terms, with `CC[C@@H]1C(=O)N(C)c2cnc(Nc3ccc(C(=O)NC4CCC(N5CCN(CCC#Cc6cccc7c6CN(C6CCC(=O)NC6=O)C7=O)CC5)CC4)cc3OC)nc2N1C1CCCC1` (stereo partly drawn) [Compound 889] the figure was ≤ 100 nM.

The test system of another test is HL-60 cells. Kind of test: Cell proliferation experiment, HL-60. To be noted: Homo sapiens, 72 h, read-out: Inhibitory activity IC50 of tested compounds on HL-60 cells. It is filed as cell-based. As to the method:
as §2, §3, §4, §5, §6, §7
Consider `CC[C@@H]1C(=O)N(C)c2cnc(Nc3ccc(C(=O)NCCCN(C)CCOCCCC#Cc4cccc5c4CN(C4CCC(=O)NC4=O)C5=O)cc3OC)nc2N1C1CCCC1` (stereo partly drawn) [Compound 884], for which the IC50 was ≤ 1000 nM.
Same read-out and setting: with `CC[C@@H]1C(=O)N(C)c2cnc(Nc3ccc(C(=O)NCCCOCCNCCC#Cc4cccc5c4CN(C4CCC(=O)NC4=O)C5=O)cc3OC)nc2N1C1CCCC1` (stereo partly drawn) [Compound 888] the figure was ≤ 1000 nM.
Same read-out and setting: with `CC[C@@H]1C(=O)N(C)c2cnc(Nc3ccc(C(=O)NC4CCC(N5CCN(CCC#Cc6cccc7c6CN(C6CCC(=O)NC6=O)C7=O)CC5)CC4)cc3OC)nc2N1C1CCCC1` (stereo partly drawn) [Compound 889] the figure was ≤ 1000 nM.

A further test concerns U-87MG cells. Kind of test: Cell proliferation experiment, U-87MG. To be noted: Homo sapiens; U-87MG cells, 72 h; read-out: Inhibitory activity IC50 of tested compounds on U-87MG cells. It is filed as cell-based. A digest of the protocol:
as §1
Turning to `CC[C@@H]1C(=O)N(C)c2cnc(Nc3ccc(C(=O)NCCCN(C)CCOCCCC#Cc4cccc5c4CN(C4CCC(=O)NC4=O)C5=O)cc3OC)nc2N1C1CCCC1` (stereo partly drawn) [Compound 884], the half-inhibitory concentration (IC50) is ≤ 100 nM.
Still for that read-out and setting: with `CC[C@@H]1C(=O)N(C)c2cnc(Nc3ccc(C(=O)NCCCOCCNCCC#Cc4cccc5c4CN(C4CCC(=O)NC4=O)C5=O)cc3OC)nc2N1C1CCCC1` (stereo partly drawn) [Compound 888] the figure was 100 to 500 nM; with `CC[C@@H]1C(=O)N(C)c2cnc(Nc3ccc(C(=O)NC4CCC(N5CCN(CCC#Cc6cccc7c6CN(C6CCC(=O)NC6=O)C7=O)CC5)CC4)cc3OC)nc2N1C1CCCC1` (stereo partly drawn) [Compound 889], ≤ 100 nM.

A further test deals with HT-29 cells. Put plainly: Cell proliferation experiment, HT-29. Format: cell-based. To be noted: Homo sapiens; HT-29 cells, 72 h; read-out: Inhibitory activity IC50 of tested compounds on HT-29 cells. The procedure, abridged:
as §1
Regarding `CC[C@@H]1C(=O)N(C)c2cnc(Nc3ccc(C(=O)NCCCN(C)CCOCCCC#Cc4cccc5c4CN(C4CCC(=O)NC4=O)C5=O)cc3OC)nc2N1C1CCCC1` (stereo partly drawn) [Compound 884], the concentration for half-maximal inhibition (IC50) was in the range of 300 to 1000 nM.
The same measure, in the same setting: with `CC[C@@H]1C(=O)N(C)c2cnc(Nc3ccc(C(=O)NCCCOCCNCCC#Cc4cccc5c4CN(C4CCC(=O)NC4=O)C5=O)cc3OC)nc2N1C1CCCC1` (stereo partly drawn) [Compound 888] the figure was 300 to 1000 nM.
On the same count and under the same terms, with `CC[C@@H]1C(=O)N(C)c2cnc(Nc3ccc(C(=O)NC4CCC(N5CCN(CCC#Cc6cccc7c6CN(C6CCC(=O)NC6=O)C7=O)CC5)CC4)cc3OC)nc2N1C1CCCC1` (stereo partly drawn) [Compound 889] the figure was ≤ 300 nM.

The subject of the next test is HUVEC cells. Put plainly: Cell proliferation experiment, HUVEC. Format: cell-based. To be noted: Homo sapiens, 72 h, read-out: Inhibitory activity IC50 of tested compounds on HUVEC cells. As to the method:
as §2, §3, §4, §5, §6, §7
Take `CC[C@@H]1C(=O)N(C)c2cnc(Nc3ccc(C(=O)NCCCN(C)CCOCCCC#Cc4cccc5c4CN(C4CCC(=O)NC4=O)C5=O)cc3OC)nc2N1C1CCCC1` (stereo partly drawn) [Compound 884]: the half-maximal inhibitory concentration (IC50) is ≤ 1000 nM.
Still for that read-out and setting: with `CC[C@@H]1C(=O)N(C)c2cnc(Nc3ccc(C(=O)NCCCOCCNCCC#Cc4cccc5c4CN(C4CCC(=O)NC4=O)C5=O)cc3OC)nc2N1C1CCCC1` (stereo partly drawn) [Compound 888] the figure was ≤ 1000 nM; with `CC[C@@H]1C(=O)N(C)c2cnc(Nc3ccc(C(=O)NC4CCC(N5CCN(CCC#Cc6cccc7c6CN(C6CCC(=O)NC6=O)C7=O)CC5)CC4)cc3OC)nc2N1C1CCCC1` (stereo partly drawn) [Compound 889], ≤ 1000 nM.

Another test concerns Hela cells. Kind of test: Cell proliferation experiment, Hela. Format: cell-based. To be noted: Homo sapiens, 72 h, read-out: Inhibitory activity IC50 of tested compounds on Hela cells. As to the method:
as §2, §3, §4, §5, §6, §7
Regarding `CC[C@@H]1C(=O)N(C)c2cnc(Nc3ccc(C(=O)NCCCN(C)CCOCCCC#Cc4cccc5c4CN(C4CCC(=O)NC4=O)C5=O)cc3OC)nc2N1C1CCCC1` (stereo partly drawn) [Compound 884], the IC50 is ≤ 1000 nM.
Regarding `CC[C@@H]1C(=O)N(C)c2cnc(Nc3ccc(C(=O)NCCCOCCNCCC#Cc4cccc5c4CN(C4CCC(=O)NC4=O)C5=O)cc3OC)nc2N1C1CCCC1` (stereo partly drawn) [Compound 888], the IC50 was ≤ 1000 nM.
For the compound `CC[C@@H]1C(=O)N(C)c2cnc(Nc3ccc(C(=O)NC4CCC(N5CCN(CCC#Cc6cccc7c6CN(C6CCC(=O)NC6=O)C7=O)CC5)CC4)cc3OC)nc2N1C1CCCC1` (stereo partly drawn) [Compound 889], the half-maximal inhibitory concentration (IC50) is ≤ 1000 nM.

Another test has as its system THP-1 cells. Put plainly: Cell proliferation experiment, THP-1. Format: cell-based. To be noted: Homo sapiens, 72 h, read-out: Inhibitory activity IC50 of tested compounds on THP-1 cells. As to the method: as §2, §3, §4, §5, §6, §7
Consider `CC[C@@H]1C(=O)N(C)c2cnc(Nc3ccc(C(=O)NCCCN(C)CCOCCCC#Cc4cccc5c4CN(C4CCC(=O)NC4=O)C5=O)cc3OC)nc2N1C1CCCC1` (stereo partly drawn) [Compound 884], for which the concentration for half-maximal inhibition (IC50) was ≤ 1000 nM.
`CC[C@@H]1C(=O)N(C)c2cnc(Nc3ccc(C(=O)NCCCOCCNCCC#Cc4cccc5c4CN(C4CCC(=O)NC4=O)C5=O)cc3OC)nc2N1C1CCCC1` (stereo partly drawn) [Compound 888]: the IC50 is ≤ 1000 nM.
Same read-out and setting: to `CC[C@@H]1C(=O)N(C)c2cnc(Nc3ccc(C(=O)NC4CCC(N5CCN(CCC#Cc6cccc7c6CN(C6CCC(=O)NC6=O)C7=O)CC5)CC4)cc3OC)nc2N1C1CCCC1` (stereo partly drawn) [Compound 889] belongs ≤ 1000 nM.

A further test relates to NCIH82 cells. Kind of test: Cell proliferation experiment, NCI-H82. Format: cell-based, human. To be noted: Homo sapiens, NCI-H82, 72 h, NCIH82 cells, 72 h; read-out: Inhibitory activity IC50 of tested compounds on NCIH82 cells. A digest of the protocol: as §1
Regarding `CC[C@@H]1C(=O)N(C)c2cnc(Nc3ccc(C(=O)NCCCN(C)CCOCCCC#Cc4cccc5c4CN(C4CCC(=O)NC4=O)C5=O)cc3OC)nc2N1C1CCCC1` (stereo partly drawn) [Compound 884], the half-inhibitory concentration (IC50) is ≤ 1000 nM.
For the compound `CC[C@@H]1C(=O)N(C)c2cnc(Nc3ccc(C(=O)NCCCOCCNCCC#Cc4cccc5c4CN(C4CCC(=O)NC4=O)C5=O)cc3OC)nc2N1C1CCCC1` (stereo partly drawn) [Compound 888], the IC50 was ≤ 1000 nM.
Same read-out and setting: with `CC[C@@H]1C(=O)N(C)c2cnc(Nc3ccc(C(=O)NC4CCC(N5CCN(CCC#Cc6cccc7c6CN(C6CCC(=O)NC6=O)C7=O)CC5)CC4)cc3OC)nc2N1C1CCCC1` (stereo partly drawn) [Compound 889] the figure was ≤ 1000 nM.
